From US20040077624A1, “Novel combination” (Pfizer Inc., priority 2002, published 2004) come the findings set out here.

For the experiment, the system named is spontaneously hypertensive rat (SHR). Description: Animal study: haemodynamic parameters in spontaneously hypertensive rats under continuous infusion. To be noted: male SHR; continuous infusion 0.4 mL/h over 4 days; enalapril 7.5 μg/mL, PDE5 inhibitor 200 μg/mL; difference from the vehicle response. It is filed as in vivo. The method, then:
The spontaneously hypertensive rat (SHR) is a widely used model of human hypertension. Male SHRs (20-22 weeks old) were instrumented with Doppler flow probes for the measurement of mesenteric, hindquarters and renal blood flow, aortic blood pressure and heart rate according to published methods (Gardiner, S M et al.; Br. J. Pharmacol. 132(8), 1625-1629, 2001).
Solutions of enalapril (7.5 μg/mL), PDE5 inhibitor (200μg/mL) and a combination of enalapril and PDE5 inhibitor (7.5μg/mL+200 μg/mL) were infused at a rate of 0.4 mL/h throughout the experimental period. Control animals received compound vehicle; isotonic saline adjusted to pH 4 with hydrochloric acid.
Baseline haemodynamic parameters were recorded. Animals (n=7 or 8/group) were randomised then treated with the drug solution by continuous infusion over 4 days. Changes in haemodynamic parameters were monitored during the study period for 7h on each day.

On to `CCOC(=O)[C@H](CCc1ccccc1)N[C@@H](C)C(=O)N1CCC[C@H]1C(=O)O` [Enalapril, enalapril], for which the “Change in aortic conductance” value is listed as “+3.7%”, the “Change in mesenteric conductance” value was “+22.4%”, the “Change in renal conductance” value was “+14.2%” and the “Overall change in mean BP” value is on record as −2.4 mmHg.

Take `CCc1c2nc(-c3cc(S(=O)(=O)N4CCN(CC)CC4)cnc3OCCOC)[nH]c(=O)c2nn1Cc1ccccn1` [PDE5 inhibitor, 3-ethyl-5-[5-(4-ethylpiperazin-1-ylsulphonyl)-2-(2-methoxyethoxy)pyridin-3-yl]-2-(pyridin-2-yl)methyl-2,6-dihydro-7H-pyrazolo[4,3-d]pyrimidin-7-one]: the “Change in aortic conductance” value is “+19.8%”, the “Change in mesenteric conductance” value is reported as “+22.1%”, the “Change in renal conductance” value is given as −0.8% and the “Overall change in mean BP” value is −12.1 mmHg.
